Literature values as cited in patent US20060024360A1, “Stable injectable composition of alpha tocopheryl succinate, analogues and salts thereof” (SD Pharmaceuticals, Inc., priority 2004, published 2006).
Counter-ions that a name gives are not always drawn.

Experiments:
[1] = tested on: mouse cancer line (C1271)
melanoma = conditions: mice
[2] = tested on: color cancer liver metastases; conditions: in vivo
malignant mesothelioma = conditions: immunocompromised mice
[3] = tested on: human gastric carcinoma cell; conditions: human cells

Cc1c(C)c2c(c(C)c1O)CC[C@@](C)(CCC[C@H](C)CCC[C@H](C)CCCC(C)C)O2 (racemic) [alpha-tocopherol, (±)-(2RS,4′RS,8′RS)-2,5,7,8-tetramethyl-2-(4′,8′, 12′-trimethyltridecyl)-6-chromanol]
induction of apoptosis [1]: not apoptogenic

CC(=O)Oc1c(C)c(C)c2c(c1C)CCC(C)(CCC[C@H](C)CCC[C@H](C)CCCC(C)C)O2 (stereo partly drawn) [alpha-tocopheryl acetate]
induction of apoptosis [1]: not apoptogenic

Cc1c(C)c2c(c(C)c1OC(=O)CC(=O)O)CCC(C)(CCCC(C)CCCC(C)CCCC(C)C)O2 (stereo not drawn) [alpha-tocopheryl malonate, Alpha-tocopheryl malonate]
induction of apoptosis [1]: induce apoptosis

Cc1c(C)c2c(c(C)c1OC(=O)c1cccnc1)CC[C@@](C)(CCC[C@H](C)CCC[C@H](C)CCCC(C)C)O2 [alpha-tocopheryl nicotinate]
induction of apoptosis [1]: not apoptogenic

Cc1c(C)c2c(c(C)c1OC(=O)C(=O)O)CCC(C)(CCCC(C)CCCC(C)CCCC(C)C)O2 (stereo not drawn) [alpha-tocopheryl oxalate, Alpha-tocopheryl oxalate]
induction of apoptosis [1]: induce apoptosis
relative potency among alpha-tocopheryl derivatives tested [1]: most potent

Cc1c(C)c2c(c(C)c1OC(=O)CCCCCC(=O)O)CCC(C)(CCCC(C)CCCC(C)CCCC(C)C)O2 (stereo not drawn) [alpha-tocopheryl pimelate, Alpha-tocopheryl pimelate]
induction of apoptosis [1]: not apoptogenic

CCOC(=O)CCC(=O)Oc1c(C)c(C)c2c(c1C)CCC(C)(CCCC(C)CCCC(C)CCCC(C)C)O2 (stereo not drawn) [alpha-tocopheryl succinate ethyl ester]
induction of apoptosis [1]: not apoptogenic

Cc1c(C)c2c(c(C)c1OC(=O)CCC(=O)O)CC[C@@](C)(CCC[C@H](C)CCC[C@H](C)CCCC(C)C)O2 [alpha-tocopheryl succinate]
induction of apoptosis [1]: induce apoptosis
melanoma growth (melanoma): inhibited melanoma growth
liver metastases [2]: inhibiting color cancer liver metastases
malignant mesothelioma (malignant mesothelioma): suppressed malignant mesothelioma
gastric carcinoma cell growth [3]: inhibits human gastric carcinoma cell growth

Cc1c(O)cc2c(c1C)O[C@](C)(CCC[C@H](C)CCC[C@H](C)CCCC(C)C)CC2 [gamma-tocopherol, Gamma-tocopherol]
induction of apoptosis [1]: not apoptogenic
